Format in all cases: ADME
A short description of series [1]: log K1 value of the compound.
Series [2] in a line: Acid dissociation constant was determined.
Series [3] is described as follows: log K2 value of the compound.
Series [4] in a line: log K3 value of the compound.

For the compound `O=C(O)CCn1ccc(=O)c(O)c1`, the “Log K1” value in series [1] is given as 9.48. In addition, the pKa worked out at 2.92 in series [2] (read-out: pKa1) and 8.91 in series [2] (read-out: pKa2). In series [3], the “Log K2” value came out at 7.48.
As for `Cn1ccc(=O)c(O)c1`, in series [1], the “Log K1” value is recorded as 9.35. Moreover, the pKa amounted to 3.35 in series [2] (read-out: pKa1) and 8.8 in series [2] (read-out: pKa2). Further, in series [3], the “Log K2” value was 7.58.
Regarding `Oc1ccncc1O`, the “Log K1” value in series [1] was 9.49. Also, the pKa in series [2] (read-out: pKa1) was found to be 3.36. In addition, the “Log K2” value in series [3] is 7.64.
Turning to `CCn1ccc(=O)c(O)c1C`, the figures for the pKa in series [2] (read-out: pKa1) and in series [2] (read-out: pKa2) were 3.79 and 9.79, respectively.
As to `CCc1c(O)c(=O)ccn1CC`, in series [1], the “Log K1” value was found to be 13.18. In addition, the pKa was determined as 3.93 in series [2] (read-out: pKa1) and 10.1 in series [2] (read-out: pKa2). Moreover, in series [4], the “Log K3” value is recorded as 2.65. In addition, the “Log K2” value in series [3] was 7.03.
Take `CCc1c(O)c(=O)ccn1C`: the pKa in series [2] (read-out: pKa1) is 3.74; in series [2] (read-out: pKa2), 9.7.
Turning to `Cc1c(O)c(=O)ccn1C` [DEFERIPRONE], the “Log K1” value in series [1] was found to be 11.48. For the same compound, the values for the pKa in series [2] (read-out: pKa1) and in series [2] (read-out: pKa2) were 3.84 and 9.86, respectively. In addition, the “Log K3” value in series [4] is 5.64. For the same compound, the “Log K2” value in series [3] turned out to be 10.22.

These data come from ChEMBL document CHEMBL1127328, “Copper complexation by 3-hydroxypyridin-4-one iron chelators: structural and iron competition studies” (J Med Chem, 1994).
